The values below are quoted from earlier work in US20050148589A1, “Compositions of a cyclooxygenase-2 selective inhibitor and a neurotrophic factor-modulating agent for the treatment of central nervous system mediated disorders” (Pharmacia & Upjohn Company LLC, priority 2003, published 2005).

The subject of data set [1] is mRNA levels of various neurotrophic factors, including nerve growth factor (NGF), transforming growth factor (beta), and S100B in the central nervous system. Particulars: treatment with Neotrofin.
Data set [2] relates to animal models of cognitive decline, aging, neuroprotection, and spinal cord injury. Particulars: pre-clinical studies.
Data set [3] has as its system brain damage due to neuroexcitotoxins. The settings on record: in vivo.

Consider `O=C(CCn1cnc2c(=O)[nH]cnc21)Nc1ccc(C(=O)[O-])cc1.[K+]` [Neotrofin], for which the “mRNA levels of neurotrophic factors (NGF, TGF beta, S100B) in the central nervous system” value in data set [1] is listed as “elevated the mRNA levels of various neurotrophic factors”.
`O=C(CCn1cnc2c(=O)[nH]cnc21)Nc1ccc(C(=O)[O-])cc1.[K+]` [Leteprinim potassium]: in data set [2], the “restoration of function in animal models” value is “restores function in animal models of cognitive decline, aging, neuroprotection, and spinal cord injury”. The “prevention of brain damage due to neuroexcitotoxins” value in data set [3] is on record as “shown to prevent brain damage due to neuroexcitotoxins”.
